Activity calls are given as the source filed them. The calls are words filed in the database; no cut-off is given here.
Key:
[1] = biological target: T1, Tyrosine-protein kinase BTK (Homo sapiens, UniProt Q06187); assay: Inhibition of BTK in anti-IgM-stimulated human Ramos cells assessed as reduction in Akt phosphorylation at 0.01 to 10 uM incubated for 4 hrs followed by anti-IgM stimulation for 30 mins by Western blot analysis; type: cell-based
KARPAS-299 = assay: Cytotoxicity against human KARPAS299 cells assessed as reduction in cell viability at 0.1 to 40 uM incubated for 48 hrs by MTS assay; type: functional, cell-based; conditions: KARPAS-299, 48 h
786-0 = assay: Cytotoxicity against human 786-O cells assessed as reduction in cell viability at 0.1 to 40 uM incubated for 48 hrs by MTS assay; type: functional, cell-based; conditions: 786-0, 48 h
HEF = assay: Cytotoxicity against human HEF cells assessed as reduction in cell viability at 0.1 to 40 uM incubated for 48 hrs by MTS assay; type: cell-based
[2] = Toxicity in NOD/SCID mouse xenografted with human Ramos cells assessed as changes in body weight at 30 to 60 mg/kg/day, ip administered daily for 14 days; type: organism-based; conditions: in vivo, 336 h
Raji [3] = assay: Antiproliferative activity against human Raji cells assessed as reduction in cell growth incubated for 48 hrs by MTS assay
BJ = assay: Cytotoxicity against human BJ cells assessed as reduction in cell viability at 0.1 to 40 uM incubated for 48 hrs by MTS assay; type: cell-based
Raji [4] = assay: Potency index,ratio of Spebrutinib IC50 to compound IC50 for antiproliferative activity against human Raji cells assessed as reduction in cell growth incubated for 48 hrs by MTS assay; type: functional
[5] = Toxicity in NOD/SCID mouse xenografted with human Ramos cells assessed as induction of morphological lesions in spleen at 60 mg/kg/day, ip administered daily for 14 days by H and E staining based histologic analysis; type: organism-based; conditions: in vivo, 336 h
[6] = Toxicity in NOD/SCID mouse xenografted with human Ramos cells assessed as induction of morphological lesions in lung at 60 mg/kg/day, ip administered daily for 14 days by H and E staining based histologic analysis; type: organism-based; conditions: in vivo, 336 h
Ramos [7] = assay: Induction of apoptosis in human Ramos cells assessed as increase in cleaved PARP1 protein expression at 0.01 to 10 uM incubated for 8 hrs by Western blotting analysis; type: functional, cell-based
HepG2 = assay: Cytotoxicity against human HepG2 cells assessed as reduction in cell viability at 0.1 to 40 uM incubated for 48 hrs by MTS assay; type: functional, cell-based; conditions: HepG2, 48 h
HT-29 = assay: Cytotoxicity against human HT-29 cells assessed as reduction in cell viability at 0.1 to 40 uM incubated for 48 hrs by MTS assay; type: functional, cell-based; conditions: HT-29, 48 h
[8] = Cytotoxicity against human HELF cells assessed as reduction in cell viability at 0.1 to 40 uM incubated for 48 hrs by MTS assay; type: cell-based
[9] = Toxicity in NOD/SCID mouse xenografted with human Ramos cells assessed as induction of morphological lesions in heart at 60 mg/kg/day, ip administered daily for 14 days by H and E staining based histologic analysis; type: organism-based; conditions: in vivo, 336 h
Ramos [10] = assay: Antitumor activity in human Ramos cells xenografted in NOD/SCID mouse assessed as reduction in tumor growth at 30 mg/kg/day, ip administered daily for 14 days; type: functional; conditions: 336 h, read-out: TGI
[11] = biological target: T1, Tyrosine-protein kinase BTK; assay: Inhibition of human recombinant full length BTK expressed in baculovirus in Sf9 insect cells using Poly (4:1 Glu, Tyr) as substrate incubated for 1 hr by ADP-Glo assay
Raji [12] = assay: Potency index,ratio of Ibrutinib IC50 to compound IC50 for antiproliferative activity against human Raji cells assessed as reduction in cell growth incubated for 48 hrs by MTS assay; type: functional
MDA-MB-231 = assay: Cytotoxicity against human MDA-MB-231 cells assessed as reduction in cell viability at 0.1 to 40 uM incubated for 48 hrs by MTS assay; type: functional, cell-based; conditions: MDA-MB-231, 48 h
[13] = biological target: T1, Tyrosine-protein kinase BTK; assay: Inhibition of BTK in anti-IgM-stimulated human Ramos cells assessed as reduction in PLCgamma2 phosphorylation at Y1217 residues at 0.01 to 10 uM incubated for 4 hrs followed by anti-IgM stimulation for 30 mins by Western blot analysis; type: cell-based
[14] = biological target: T1, Tyrosine-protein kinase BTK; assay: Inhibition of BTK in anti-IgM-stimulated human Ramos cells assessed as reduction in autophosphorylation at Y223 residues at 0.01 to 10 uM incubated for 4 hrs followed by anti-IgM stimulation for 30 mins by Western blot analysis; type: cell-based
MCF7 = assay: Cytotoxicity against human MCF7 cells assessed as reduction in cell viability at 0.1 to 40 uM incubated for 48 hrs by MTS assay; type: functional, cell-based; conditions: MCF7, 48 h
[15] = Toxicity in NOD/SCID mouse xenografted with human Ramos cells assessed as induction of morphological lesions in kidney at 60 mg/kg/day, ip administered daily for 14 days by H and E staining based histologic analysis; type: organism-based; conditions: in vivo, 336 h
HeLa = assay: Cytotoxicity against human HeLa cells assessed as reduction in cell viability at 0.1 to 40 uM incubated for 48 hrs by MTS assay; type: functional, cell-based
K562 = assay: Cytotoxicity against human K562 cells assessed as reduction in cell viability at 0.1 to 40 uM incubated for 48 hrs by MTS assay; type: functional, cell-based; conditions: K562, 48 h
NCI-H1299 = assay: Cytotoxicity against human H1299 cells assessed as reduction in cell viability at 0.1 to 40 uM incubated for 48 hrs by MTS assay; type: functional, cell-based; conditions: NCI-H1299, 48 h
A549 = assay: Cytotoxicity against human A549 cells assessed as reduction in cell viability at 0.1 to 40 uM incubated for 48 hrs by MTS assay; type: functional, cell-based; conditions: A549, 48 h
Ramos [16] = assay: Antitumor activity in human Ramos cells xenografted in NOD/SCID mouse assessed as reduction in tumor growth at 60 mg/kg/day, ip administered daily for 14 days; type: functional; conditions: 336 h, read-out: TGI
PC-3 = assay: Cytotoxicity against human PC3 cells assessed as reduction in cell viability at 0.1 to 40 uM incubated for 48 hrs by MTS assay; type: functional, cell-based; conditions: PC-3, 48 h
NCI-H3122 = assay: Cytotoxicity against human NCI-H3122 cells assessed as reduction in cell viability at 0.1 to 40 uM incubated for 48 hrs by MTS assay; type: functional, cell-based; conditions: NCI-H3122, 48 h
Ramos [17] = assay: Potency index,ratio of Spebrutinib IC50 to compound IC50 for antiproliferative activity against human Ramos cells assessed as reduction in cell growth incubated for 48 hrs by MTS assay; type: functional
MCF-10A = assay: Cytotoxicity against human MCF10A cells assessed as reduction in cell viability at 0.1 to 40 uM incubated for 48 hrs by MTS assay; type: cell-based
Ramos [18] = assay: Potency index,ratio of Ibrutinib IC50 to compound IC50 for antiproliferative activity against human Ramos cells assessed as reduction in cell growth incubated for 48 hrs by MTS assay; type: functional
Jurkat = assay: Cytotoxicity against human Jurkat cells assessed as reduction in cell viability at 0.1 to 40 uM incubated for 48 hrs by MTS assay; type: functional, cell-based
[19] = biological target: T1, Tyrosine-protein kinase BTK; assay: Inhibition of BTK in anti-IgM-stimulated human Ramos cells assessed as reduction in Erk phosphorylation at 0.01 to 10 uM incubated for 4 hrs followed by anti-IgM stimulation for 30 mins by Western blot analysis; type: cell-based
[20] = Toxicity in NOD/SCID mouse xenografted with human Ramos cells assessed as induction of morphological lesions in liver at 60 mg/kg/day, ip administered daily for 14 days by H and E staining based histologic analysis; type: organism-based; conditions: in vivo, 336 h
Ramos [21] = assay: Antiproliferative activity against human Ramos cells assessed as reduction in cell growth incubated for 48 hrs by MTS assay
[22] = biological target: T1, Tyrosine-protein kinase BTK; assay: Inhibition of BTK in anti-IgM-stimulated human Ramos cells assessed as reduction in PLCgamma2 phosphorylation at Y1217 residues at 10 uM incubated for 4 hrs followed by anti-IgM stimulation for 30 mins by Western blot analysis; type: cell-based

T1 sequence (Q06187 whole entry): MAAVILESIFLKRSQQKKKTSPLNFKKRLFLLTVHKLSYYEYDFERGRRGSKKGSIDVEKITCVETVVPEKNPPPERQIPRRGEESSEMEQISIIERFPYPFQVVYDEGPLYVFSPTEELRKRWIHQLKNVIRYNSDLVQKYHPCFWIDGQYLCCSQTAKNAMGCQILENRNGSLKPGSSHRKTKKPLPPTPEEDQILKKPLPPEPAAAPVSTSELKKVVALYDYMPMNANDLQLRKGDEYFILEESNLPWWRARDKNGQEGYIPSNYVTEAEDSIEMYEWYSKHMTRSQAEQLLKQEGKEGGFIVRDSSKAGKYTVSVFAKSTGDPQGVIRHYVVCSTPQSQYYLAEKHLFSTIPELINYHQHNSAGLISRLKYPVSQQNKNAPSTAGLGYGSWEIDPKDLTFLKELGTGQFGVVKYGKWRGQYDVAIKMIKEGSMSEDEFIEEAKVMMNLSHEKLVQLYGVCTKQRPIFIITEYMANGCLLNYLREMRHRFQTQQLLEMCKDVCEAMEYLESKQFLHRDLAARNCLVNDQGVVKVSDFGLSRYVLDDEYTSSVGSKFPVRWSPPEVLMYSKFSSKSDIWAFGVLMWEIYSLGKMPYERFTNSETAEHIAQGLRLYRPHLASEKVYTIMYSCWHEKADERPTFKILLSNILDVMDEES

C=CC(=O)Nc1cccc(Nc2nc(Nc3ccc(OCCSC(=S)NCc4cccnc4)cc3)ncc2F)c1
inhibition [1]: Active
IC50 (KARPAS-299): > 40 µM
IC50 (786-0): 4.96 µM
IC50 (HEF): 28.4 µM
Activity [2]: Non-Toxic
IC50 (Raji [3]): 0.706 µM
IC50 (BJ): 12.8 µM
Ratio IC50 (Raji [4]): 10
Activity [5]: Non-Toxic
Activity [6]: Non-Toxic
Activity (Ramos [7]): Active
IC50 (HepG2): 16.2 µM
IC50 (HT-29): 10.2 µM
IC50 [8]: 19.3 µM
Activity [9]: Non-Toxic
inhibition in vivo at 30 mg/kg/day (Ramos [10]): 21.5%
IC50 [11]: 0.00115 µM
Ratio IC50 (Raji [12]): 10
IC50 (MDA-MB-231): 35.4 µM
inhibition [13]: Dose-dependent effect
inhibition [14]: Active
IC50 (MCF7): 17.4 µM
Activity [15]: Non-Toxic
IC50 (HeLa): 8.74 µM
IC50 (K562): 3.27 µM
IC50 (NCI-H1299): 17.9 µM
IC50 (A549): 3.2 µM
inhibition in vivo at 60 mg/kg/day (Ramos [16]): 57.8%
IC50 (PC-3): 8.25 µM
IC50 (NCI-H3122): 33.4 µM
Ratio IC50 (Ramos [17]): 10
IC50 (MCF-10A): 8.62 µM
Ratio IC50 (Ramos [18]): 10
IC50 (Jurkat): 2.49 µM
inhibition [19]: inactive
Activity [20]: Non-Toxic
IC50 (Ramos [21]): 0.357 µM

CCC(=O)Nc1cccc(Nc2nc(Nc3ccc(OCCSC(=S)NCc4cccnc4)cc3)ncc2F)c1
IC50 (Raji [3]): > 40 µM
IC50 [11]: > 0.5 µM
inhibition [22]: inactive
IC50 (Ramos [21]): > 40 µM

C=CC(=O)Nc1cccc(Nc2nc(Nc3ccc(OCCCCSC(=S)NCc4cccnc4)cc3)ncc2F)c1
IC50 (Raji [3]): 1.05 µM
IC50 [11]: 0.0165 µM
IC50 (Ramos [21]): 1.49 µM

C=CC(=O)Nc1cccc(Nc2nc(Nc3ccc(OCCSC(=S)NC(C)C)cc3)ncc2F)c1
IC50 (Raji [3]): 9.58 µM
IC50 [11]: 0.0982 µM
IC50 (Ramos [21]): 9.31 µM

C=CC(=O)Nc1cccc(Nc2nc(Nc3ccc(OCCOC)cc3)ncc2F)c1 [SPEBRUTINIB]
IC50 (KARPAS-299): 20.3 µM
IC50 (786-0): 14.9 µM
IC50 (HEF): 22.6 µM
IC50 (Raji [3]): 21.6 µM
IC50 (BJ): 27.6 µM
IC50 (HepG2): 33.5 µM
IC50 (HT-29): 18.9 µM
IC50 [8]: 16 µM
inhibition in vivo at 30 mg/kg/day (Ramos [10]): 28.9%
IC50 (MDA-MB-231): > 40 µM
IC50 (MCF7): 29 µM
IC50 (HeLa): 17.4 µM
IC50 (K562): 12.6 µM
IC50 (NCI-H1299): 38.5 µM
IC50 (A549): 1.98 µM
IC50 (PC-3): 22.2 µM
IC50 (NCI-H3122): 32.5 µM
IC50 (MCF-10A): 4.36 µM
IC50 (Jurkat): 6.7 µM
IC50 (Ramos [21]): 5.44 µM

C=CC(=O)Nc1cccc(Nc2nc(Nc3ccc(OCCSC(=S)N(C)C)cc3)ncc2F)c1
IC50 (Raji [3]): 13.8 µM
IC50 [11]: 0.00144 µM
IC50 (Ramos [21]): 9.53 µM

C=CC(=O)Nc1cccc(Nc2nc(Nc3ccc(NC(=O)CSC(=S)NCc4cccnc4)cc3)ncc2F)c1
IC50 (Raji [3]): 0.31 µM
IC50 [11]: 0.0184 µM
IC50 (Ramos [21]): 1.13 µM

C=CC(=O)Nc1cccc(Nc2nc(Nc3ccc(OCCSC(=S)NCc4ccccc4)cc3)ncc2F)c1
IC50 (Raji [3]): 2.22 µM
IC50 [11]: 0.0108 µM
IC50 (Ramos [21]): 1.38 µM
